Reference: patent US4477670A, “4-Aryloxy-1,2,3,4-tetrahydroisoquinolines” (Hoechst-Roussel Pharmaceuticals Inc., priority 1982, dated 1984)
Counter-ions that a name gives are not always drawn. Like-named read-outs stand apart in the source and are kept apart here.

Columns and labels:
[1] = system: phenyl-para-quinone induced writhing; experiment: phenyl-para-quinone writhing assay in mice (analgesia); format: in vivo; settings: subcutaneous
Text: The compounds of the invention are primarily useful as analgesic and anticonvulsant agents. […] Exptl. Biol. Med., 95, 729 (1953)]. Listed below in Table III is the analgesic effect of some of the compounds of the invention, expressed as percent inhibition of phenyl-para-quinone induced writhing.

[2] = system: supra maximal electroshock (extensor tonus); experiment: supra maximal electroshock assay (anticonvulsant); format: in vivo, male mice (Charles River, CD-1); settings: Mus musculus, ip, read-out: % Inhibition (anticonvulsant effect)
Protocol: The compounds of the present invention are also useful as anticonvulsant agents for mammals as evidenced by the supra maximal electroshock assay of Woodbury, L. A. and Davenport, U. D. in Arch. Int. Pharmacodynam, Vol. 92 (1952) at pages 97-107.
In this method, groups of male mice are used (Charles River, CD-1), 18-30 grams. Drugs are prepared using distilled water and if insoluble, a surfactant is added. Control animals receive vehicle. Drugs are routinely administered intraperitoneally. The route of administration may be varied (orally, subcutaneously). The dosage volume is 10 ml/kg.
The animal's eyes are placed across the output terminals of an A.C. shocker that delivers 205 volts rms for 300 milliseconds. Electrode paste coats the animal's eyes at the point of contact with the terminals.
Protection is expressed as normalized percent inhibition relative to vehicle control.
A time response is carried out using 6 animals per group. Animals are tested at 30, 60 and 120 minutes post-drug. Additional time periods are tested if indicated by previous tests.
Listed below in Table II is the anticonvulsant effect of some of the compounds of the invention expressed as percent inhibition.

[3] = diuretic activity in rats, drug to urea ratio; format: in vivo, female Wistar rats; settings: oral, urine 0-5 hours, vs urea 1000 mg/kg
Protocol: Selected compounds of the present invention are useful as diuretics. The diuretic activity of the compounds is measured in the following manner. Groups of female Wistar rats (150-200 grams) are used and they are food deprived 16 hours prior to testing. Drugs are prepared in 1% saline and administered in a dosage volume of 15 ml/kg orally. After dosing each animal is placed in an individual metabolic cage. Water is permitted ad libitum. Urine is collected from 0-5 hours after dosing. […] The individual urine samples are analyzed for sodium and/or potassium and chloride. Sodium and potassium values are typically determined using a flame photometer. Chloride determinations are typically made by a chloride analyzer. Sodium, potassium and chloride values are expressed as the mean milliequivalents (mEq)/kg/5 hrs. Diuresis is expressed as the mean milliliters (ml)/kg/5 hrs. The mean values obtained for sodium, potassium, chloride and diuresis are expressed in a ratio to the sodium, potassium, chloride and diuresis values obtained for the urea treated group. This ratio is called the "drug to urea ratio." A drug to urea ratio greater than or equal to one for diuresis and/or sodium is indicative of diuretic activity. The diuretic effect of some of the compounds of the invention, expressed as the ratio of (a) the mean values obtained for diuresis (urine volume) of the compound treated group to the urea treated group and (b) the mean values obtained for sodium of the compound treated group to the urea treated group, are given in Table I.

[4] = system: 5-HTP activity (continuous forelimb clonus); experiment: L-5-hydroxytryptophan (5 HTP) potentiation in rats; format: in vivo, male Wistar rats; settings: Rattus norvegicus, ip
Protocol: Groups of six male Wistar rats (150-200 grams) are used in this test procedure. Four hours prior to testing pargyline HCl is prepared and administered by subcutaneous injection at 75 mg/kg in 1% saline and at a dosage volume of 1.25 ml/kg. Thirty minutes before testing, drugs are prepared using distilled water and, if insoluble, a suitable surfactant is added. Control groups receive vehicle. Drugs are routinely administered intraperitoneally (i.p.) at a dosage volume of 10 ml.kg. L-5-Hydroxytryptophan is prepared at 1.0 mg/kg in distilled water and is administered i.p. in volumes proportional to 10 ml/kg. Drugs are administered in a randomized manner and 5-minute post 5-HTP treatment the animals are observed for 15 minutes. […] Potentiation is expressed as normalized percent potentiation relative to vehicle control. When a compound is observed to potentiate 5-HTP activity, a dose range using ten animals per group is run in the same manner. An effective dose (ED) is determined by probit analysis.

[5] = system: ptosis of tetrabenazine-induced depression; experiment: inhibition of tetrabenazine-induced depression (ptosis) in mice; format: in vivo; settings: intraperitoneal
[6] = intraperitoneal, probit analysis, read-out: ED50 (5-HTP potentiation)

For “1,2,3,4-tetrahydro-4-(p-trifluoromethylphenyl)isoquinoline hydrochloride”, the “% Inhibition of phenyl-para-quinone induced writhing” value (“% Inhibition” below) ([1]; 25.0 mg/kg) was 51%.

With `FC(F)(F)c1cccc(OC2CNCc3ccccc32)c1` (stereo not drawn) [1,2,3,4-Tetrahydro-4-(m-trifluoromethylphenoxy)isoquinoline maleate] the inhibition in vivo at 21 mg/kg ([2]; intraperitoneal, 21.0 mg/kg) was 50%.

With `FC(F)(F)c1ccc(OC2CNCc3ccccc32)cc1` (stereo not drawn) [1,2,3,4-Tetrahydro-4-(p-trifluoromethylphenoxy)isoquinoline hydrochloride] the inhibition in vivo at 35 mg/kg ([2]; intraperitoneal, 35.0 mg/kg) was 50%.

With `CN(C)CCN1Cc2ccccc2C(Oc2ccc(C(F)(F)F)cc2)C1` (stereo not drawn) [2-(2-N,N--dimethylaminoethyl)-1,2,3,4-tetrahydro-4-(p-trifluoromethylphenoxy)isoquinoline] the “Diuresis Drug to Urea Ratio (Vol.)” value ([3]; 25 mg/kg) was 1.1 and the “Sodium Drug to Urea Ratio” value ([3]; 25 mg/kg) was 1.4.

For `CCN(CC)CCN1Cc2ccccc2C(Oc2ccc(C(F)(F)F)cc2)C1` (stereo not drawn) [2-(2-N,N-Diethylaminoethyl)-4-(p-trifluoromethylphenoxy)-1,2,3,4-tetrahydroisoquinoline dioxalate], the “Diuresis Drug to Urea Ratio (Vol.)” value ([3]; 25 mg/kg) was 1.4, the “Sodium Drug to Urea Ratio” value ([3]; 25 mg/kg) was 1.0 and the “% Inhibition” value ([1]; 21.8 mg/kg) was 50%. The inhibition in vivo at 14.8 mg/kg ([2]; intraperitoneal, 14.8 mg/kg) was 50%.

In the case of `CN(C)CCN1Cc2ccccc2C(Oc2ccc(C(F)(F)F)cc2)C1` (stereo not drawn) [2-(2-N,N-Dimethylaminoethyl)-4-(p-trifluoromethylphenoxy)-1,2,3,4-tetrahydroisoquinoline dihydrochloride], the “% Inhibition” value ([1]; 14.4 mg/kg) is reported as 50% and the inhibition in vivo at 10.3 mg/kg ([2]; intraperitoneal, 10.3 mg/kg) is reported as 50%.

For `CN(C)CCCN1Cc2ccccc2C(Oc2cccc(C(F)(F)F)c2)C1.O=C(O)/C=C\C(=O)O.O=C(O)/C=C\C(=O)O` (stereo not drawn) [2-(3-Dimethylaminopropyl)-1,2,3,4-tetrahydro-4-(m-trifluoromethylphenoxy)isoquinoline dimaleate], the “% Inhibition” value ([1]; 25.0 mg/kg) was 53% and the inhibition in vivo at 50 mg/kg ([2]; intraperitoneal) was 100%.

Work on `CN(C)CCCN1Cc2ccccc2C(Oc2ccc(C(F)(F)F)cc2)C1` (stereo not drawn) [2-(3-Dimethylaminopropyl)-1,2,3,4-tetrahydro-4-(p-trifluoromethylphenoxy)isoquinoline dihydrochloride] yielded an inhibition in vivo at 14.4 mg/kg ([2]; intraperitoneal, 14.4 mg/kg) of 50%.

With `CN(C)CCCN1Cc2ccccc2C(Oc2ccc([N+](=O)[O-])cc2)C1` (stereo not drawn) [2-(3-N,N-dimethylaminopropyl)-4-(p-nitrophenoxy)-1,2,3,4-tetrahydroisoquinoline dihydrochloride] the “% Inhibition” value ([1]; 14.7 mg/kg) was 50%.

For `FC(F)(F)c1ccc(OC2CN(CCCN3CCCCC3)Cc3ccccc32)cc1.O=C(O)C(=O)O.O=C(O)C(=O)O` (stereo not drawn) [2-(3-Piperidinopropyl)-1,2,3,4-tetrahydro-4-(p-trifluoromethylphenoxy)isoquinoline dioxalate], the “Diuresis Drug to Urea Ratio (Vol.)” value ([3]; 10 mg/kg) was 1.6, the “Sodium Drug to Urea Ratio” value ([3]; 10 mg/kg) was 2.2 and the “% Inhibition” value ([1]; 15.4 mg/kg) was 50%.

In the case of `CN1Cc2ccccc2C(Oc2cccc(C(F)(F)F)c2)C1.O=C(O)/C=C\C(=O)O` (stereo not drawn) [2-Methyl-1,2,3,4-tetrahydro-4-(m-trifluoromethylphenoxy)isoquinoline maleate], the ED50 [4, 6] is reported as 7.8 mg/kg, the “inhibition of the ptosis of tetrabenazine-induced depression” value ([5]; 20 mg/kg) is reported as 50% and the inhibition in vivo at 50 mg/kg ([2]; intraperitoneal) is reported as 67%.

For `CN1Cc2ccccc2C(Oc2ccc([N+](=O)[O-])cc2)C1` (stereo not drawn) [2-Methyl-4-(p-nitrophenoxy)-1,2,3,4-tetrahydroisoquinoline], the ED50 [4, 6] was 4.5 mg/kg and the “inhibition of the ptosis of tetrabenazine-induced depression” value ([5]; 20 mg/kg) was 30%.

For `Clc1ccc(OC2CNCc3ccccc32)cc1` (stereo not drawn) [4-(p-Chlorophenoxy)-1,2,3,4-tetrahydroisoquinoline hydrochloride], the inhibition in vivo at 23.4 mg/kg ([2]; intraperitoneal, 23.4 mg/kg) was 50%.

With `CN(C)CCCN1Cc2ccccc2C(Oc2ccc(Cl)cc2)C1` (stereo not drawn) [4-(p-Chlorophenoxy)-2-(3-dimethylaminopropyl)-1,2,3,4-tetrahydroisoquinoline dimaleate] the inhibition in vivo at 50 mg/kg ([2]; intraperitoneal) was 100%.

In the case of `CN1Cc2ccccc2C(Oc2ccc(C#N)cc2)C1` (stereo not drawn) [4-(p-Cyanophenoxy)-2-methyl-1,2,3,4-tetrahydroisoquinoline], the “Diuresis Drug to Urea Ratio (Vol.)” value ([3]; 50 mg/kg) is reported as 1.1 and the “Sodium Drug to Urea Ratio” value ([3]; 50 mg/kg) is reported as 1.2.

For `O=C(O)/C=C\C(=O)O.O=[N+]([O-])c1ccc(OC2CNCc3ccccc32)cc1` (stereo not drawn) [4-(p-Nitrophenoxy)-1,2,3,4-tetrahydroisoquinoline maleate], the “% Inhibition” value ([1]; 25.0 mg/kg) was 65%.

`CN1Cc2ccccc2C(Oc2ccc(C(F)(F)F)cc2)C1` (stereo not drawn) [4-(p-Trifluoromethylphenoxy)-2-methyl-1,2,3,4-tetrahydroisoquinoline oxalate] showed an inhibition in vivo at 50 mg/kg ([2]; intraperitoneal) of 50%.

For `CN(C)CCC=C1c2ccccc2CCc2ccccc21` [Amitriptyline, reference compound], the ED50 ([4]; standard, unit inferred, read-out: ED50 (5-HTP potentiation), standard) was 7.1 mg/kg and the “inhibition of the ptosis of tetrabenazine-induced depression” value ([5]; 2 mg/kg) was 50%.

For `CNC1=Nc2ccc(Cl)cc2C(c2ccccc2)=[N+]([O-])C1` [Chlorodiazepoxide, reference compound], the inhibition in vivo at 8 mg/kg [2] was 50%.

`CN1C(=O)CN=C(c2ccccc2)c2cc(Cl)ccc21` [Diazepam, reference compound] showed an inhibition in vivo at 1.7 mg/kg [2] of 50%.

For `C=C(CC)C(=O)c1ccc(OCC(=O)O)c(Cl)c1Cl` [ethacrynic acid, reference compound], the “Diuresis Drug to Urea Ratio (Vol.)” value ([3]; 64 mg/kg) was 2.5.

In the case of `O=C(O)COc1ccc(C(=O)c2cccs2)c(Cl)c1Cl` [tienilic acid, reference compound], the “Diuresis Drug to Urea Ratio (Vol.)” value ([3]; 64 mg/kg) is reported as 1.8.

With Propoxyphene [reference compound] the “% Inhibition” value ([1]; 3.9 mg/kg) was 50%.
